From patent US7737250B2, “Peptides for treating axonal damage, inhibition of neurotransmitter release and pain transmission, and blocking calcium influx in neurons” (Mount Sinai School of Medicine of New York University, priority 2003, dated 2010)

How the values were obtained:
[1] = test system: mouse cerebellar granular neurons; test: Neurite outgrowth assay; assay type: cell-based; details: 30 μg/ml peptide; for average neurite length: 24 h in culture
Method: For neurite outgrowth assays, chick Ng-CAM was purified from chick brain using an antibody-based affinity column according to techniques well known in the art. The anti-Ng-CAM antibody was antibody 8D9 (Developmental Studies Hybridoma Bank, University of Iowa). Then purified chick Ng-CAM (50 μg/ml) or mouse laminin (Invitrogen, 100 μg/ml) was spotted on a 35 mm plastic culture dish at room temperature (RT) for 1 hr. After washing with PBS, the plastic surface was blocked with 1% Bovine Serum Albumin in phosphate buffered saline (13SA/PBS) at RT. Negative control dishes were coated with 1% Bovine Serum Albumin in phosphate buffered saline (BSA/PBS) at RT.
Cerebellar cells were prepared from postnatal day 4 (P4) mouse by trypsinization followed by trituration. Postnatal day 4 (P4) mouse cerebellum was minced in Calcium/Magnesium-free phosphate buffer (Ca/Mg-free PBS). Minced cerebellum was then treated with 0.05% Trypsin (Gibco) in Ca/Mg-free PBS for 15 minutes at 37° C. Trypsinization was halted by addition of 10% Fetal Calf Serum (Hyclone). Trypsinized cells were then triturated 5 times with a fire-polished Pasteur pipette to dissociate the cells. The remaining cell clumps were allowed to settle, and the suspended cells were plated and maintained for use in the neurite outgrowth assays.
Cultured cerebellar cells were resuspended in BME/B-27 medium (BME medium plus B-27 supplement, both from Gibco) supplemented with penicillin/streptomycin (Gibco) to a cell density of 5×10^5 cells/ml. Then 250 μl of this cell suspension was plated on the dishes. AP-YF or AP-Scramble peptides dissolved in Hank's Balanced Salt Solution (Gibco) were added to the plated cells at final concentration of 30 μg/ml. Cultures were incubated at 37° C. for 24 hrs in 5% CO2. These cultures were fixed with 4% paraformaldehyde and images were collected on a Zeiss Axiovert 100TV microscope using a 100× plan neofluor objective. Neurite outgrowth measurements were performed using NIH image software. Data was expressed as average neurite length in μm (+/− standard deviation). P-values were determined using Student's t-test analysis. Microsoft Excel was used to plot the data as % neurites of length greater than Xpm versus neurite length X (in μm).
Mouse cerebellar granular neurons were plated on tissue culture dishes coated with chick Ng-CAM, a chick homolog of L1-CAM, or on tissue culture dishes coated with mouse laminin. The Ng-CAM substrate interacts with cell-surface L1-CAM, while laminin substrate interacts with cell surface integrins and therefore serves as the negative control. These cultures were treated with either AP-YF or AP-Scramble peptides. After 24 hours of culture, the neurons were fixed and neurite outgrowth lengths w-ere measured by NIH image software degree (in μm).

[2] = test system: cell-surface myc-L1-CAM on ND-7 cells; test: L1-CAM diffusion behavior assay: movement of 9E10-coated beads bound to myc-L1-CAM (video microscopy, laser tweezers); assay type: cell-based, rat
Excerpt: Video microscopy, laser tweezers, and data analysis: The 9E10-coated latex beads were then placed and held with an optical gradient laser trap on the surface of transfected cells at a distance of between 0.5 and 1 μm from the leading edge for 2 seconds. The laser trap consisted of a Titanium Sapphire (Coherent; model 890) solid state laser pumped by a 5 W frequency-doubled Neodymnium Vanadate laser (Verdi; Coherent) and tuned to 800 nm. This wavelength was previously determined to generate the fewest heating artifacts in live cells (Svoboda and Block. Biomol Struct 1994;23:-247-285 and Choquet et al. Cell 1997;88:39-48). Laser power at the output of the Titanium Sapphire laser was 40 mW, and prepared beads were placed and held on the cell surface for less than 3 sec to further reduce the possibility of heating artifacts. Laser light was introduced through the television port of the Axiovert microscope.
Video images of bead movement were collected using a newvicon camera (Dage MTI; VE-1000N) and background subtraction and contrast enhancement were carried using a Hamamatsu Argus 20 image processor. Raw data were recorded to sVHS video tape for subsequent analysis. Video recordings were subsequently digitized onto an Intel processor-based computer running the Isee imaging software (Isee Imaging) running under Red Hat Linux 7.1. Quantification of bead movement was carried out in Isee. Diffusional analysis was carried out using a custom spreadsheet in Excel (Microsoft). This spreadsheet carries out 4 operations: first, it scales the data from pixel measurements to nm using the appropriate scale factor (determined by the magnification used to observe bead movement); second, it subtracts the first point from all of the data, to set the origin at 0,0 (x,y coordinates); third, it rotates (in two dimensional space) the data around the origin so that the orientation of the cell is the same from trial to trial (here, the data was set so that the cells all face to the left); and fourth, the spreadsheet calculates the mean square displacement (MSD) data which are used to calculate diffusion coefficients and bead velocity. Individual traces were scored blind for classes of behavior. Statistical analysis of percentages of trials was carried out using chi-squared analysis or a Fisher's exact probability test.
MSD values were calculated as previously described (see Qian et al, 1991; Biophysical Journal 60 p910). For these calculations, the squared displacement (a^2+b^2; where a=xn+t−xn, b=a=yn+t−yn for any two points separated by time t) of the bead was calculated between two points in the data set. The mean of the squared displacements was calculated for each time interval t=1 to m, where m is the time interval that equals 10% of the length of the data set. The mean displacement was plotted with respect to time giving a curve with a linear or quadratic shape, depending on the behavior of the bead. Diffusion rates and velocity were calculated by fitting the curve with the equation MSD=4Dt+v^2t^2, where D is the diffusion coefficient, v is the velocity and t is time. D and v were calculated for each bead independently and presented as averages or as individual values, as described in each case.
Cell culture and transfection: ND-7 cells (rat neuroblastoma/DRG hybrid cells) were plated and transfected with pMyc-L1-CAM, pMyc-L1-CAM-YF, pMyc-L1-CAM-YH, or pMyc-L1-CAM-STOP expression constructs as described in Example 3, supra.
In some instances, ND-7 cells transfected with pMyc-L1-CAM were treated with the cytoskeletal inhibitor cytochalasin D (2 μM; Sigma) or nocadazole (1 μM; Sigma). For these experiments treatment with DMSO (0.01%) vehicle alone served as the negative control.
In some instances, ND-7 cells transfected with pMyc-L1-CAM were treated with neural growth factor (NGF) to stimulate phosphorylation of tyrosine 1229 (Y1229) of the L1-CAM cytoplasmic domain, and thereby inhibit ankyrin binding. […]

Cav2.2 channels = test: Calcium channel distribution by confocal indirect immunofluorescence in DRG neurons; assay type: cell-based, chicken; details: DRG neurons pretreated with peptide 1.4 μg/ml, 30 min
Method: Antibodies: Primary antibody: rabbit anti-pan α1 binds Ca channel (1:200 dilution, [1.5 μg/ml) [Alomone Labs; Jerusalem, Israel]. Secondary antibodies: (1:200 dilution, 10 μg/ml): tetramenthylrhodamine conjugated goat anti-rabbit IgG (H+L) [Molecular Probes; Eugene, OR]
Dorsal root ganglia were dissected from 11 to 12 day old embryos, incubated for 30 min in saline containing nominal Ca 2^+ and Mg 2^+, and 0.05% collagenase (type A, Boehringer Mannheim). Ganglia were dissociated mechanically into single cells by trituration in culture medium containing Dulbecco's modified Eagle's medium supplemented with 10% horse serum, 5% chicken embryo extract, penicillin, streptomycin, glutamine, and nerve growth factor. Cells were plated at a density of ˜50,000 cells/collagen-coated 35 mm tissue culture dish and studied between 1 and 3 days in vitro.
Immunohistochemistry: Cultures grown on poly-L-lysine cover glass slips were exposed to saline or 100 mM NE (norepinephrine), fixed and permeabilized in methanol at −20° C. for 15-minutes or 20 second (for residual experiment) followed by 3×5-min washes in PHEM Buffer [60 mM PIPES, 25 mM HEPES, 10 mM EGTA, 2 mM MgCl2, pH 6.9]. Cells were alternatively fixed with 4% paraformaldehyde in PHEM buffer, pH 6.9 for 20-min, washed 3×3-min with PHEM buffer and permeabilization with 0.1% Triton X-100/PHEM buffer for 3-min. Blocking was performed using 5% BSA in PHEM Buffer for 1-h at 4 C. Following overnight incubation with primary antibody in 1% BSA and 1% normal goat sera in PHEM Buffer at 4 C. After washes with PHEM Buffer, cover slips were incubated with fluorophore-conjugated secondary antibodies in 1% BSA PHEM Buffer for 1.5 hours at room temperature in the dark. […]
Images of fixed cells were obtained with a pinhole setting of 0.95 using a UV 100× 1.4NA oil Leica objective lens and an optical zoom between 1.4 and 2× at slow acquisition speed with 4× frame averaging accumulation. The number of sections was calculated by the Leica TCS software based on acquisition of sections at 240 nm intervals in the Z-plane. […]

[3] = ND-7 cells expressing myc-L1-CAM, 1.4 μg/ml peptide for 30 minutes

RQIKIWFQNRRMKWKKFQGIFSGDENFQ [AP-Scramble]
average neurite length ([1]; on Ng-CAM substrate): 21 μm
bead velocity compared to untreated controls ([2]; 1.4 μg/ml peptide): no significant effect
Cav2.2 channel distribution (plasma membrane vs cytoplasm) (Cav2.2 channels): no effect

RQIKIWFQNRRMKWKKQFNEDGSFIGQF [AP-YF]
neurite extension above control levels ([1]; on Ng-CAM substrate, 24 h, vs AP-Scramble): 55%
average neurite length ([1]; on Ng-CAM substrate): 32 μm
axon extension on laminin ([1]; on laminin substrate, 24 h, vs AP-Scramble): not significantly affected
percentage of beads showing stationary behavior [2, 3]: reduced
percentage of trials undergoing retrograde movement [2, 3]: increase
Cav2.2 channel distribution (plasma membrane vs cytoplasm) (Cav2.2 channels): induces removal of Cav2.2 channels
